According to patent publication US11891394B1, “Pyrrolo[2,3-c][1,6]naphthyridine-8-carboxylic acid compounds as CK2 inhibitors” (KING FAISAL UNIVERSITY, priority 2023, dated 2024):

Legend:
A375 (melanoma) = assay: In vitro cytotoxic activity (MTT) assay, A375; assay type: cell-based; settings: Homo sapiens, A-375, exposed 96 hours, read-out: IC50, 50% inhibition of cell proliferation
Method: (§1) Compounds 1-16 were screened for their in vitro cytotoxic activity utilizing a 3-(4,5-dimethyl-thiazol-2-yl)-2,5-diphenyltetrazolium bromide (MTT) assay against selected cancer human cell lines consisting of PC3 (prostate), HCT116 (colon), A375 (melanoma), H1299 (lung), MIAPaCa-2 (pancreas), HL60 (leukemia), MCF7 (breast), MDA-MB-231 (breast) (T. Mosmann, J. Immunol. Meth., 1983, 65, 55-63). The cells were cultured at 37° C. in RMPI1640 medium supplemented with 10% fetal bovine serum, 50 IU/mL penicillin, and 50 μg/mL streptomycin in a 5% CO2 incubator. All cells were sub-cultured 3 times/week by trypsinisation. Viable cells were seeded and allowed to adhere for 12 h before a test drug was added in 96-well plates at an initial density of 1.0×10^5 cells/mL. Tumour cell lines were separately exposed to various concentrations of the tested compounds followed by incubation at a temperature of 37° C. during 96 h inside a medium of fresh RMPI 1640. Cells were subsequently incubated at 37° C. using MTT at 0.5 mg/mL during 4 h. After removal of supernatant, formazan crystals were dissolved in isopropanol and the optical density was measured at 570 nm. CX-4945 was used as a positive control.

HL60 (leukemia) = assay: In vitro cytotoxic activity (MTT) assay, HL60; assay type: cell-based; settings: Homo sapiens, HL-60, exposed 96 hours, read-out: IC50, 50% inhibition of cell proliferation
Method: as §1

[1] = biological target: T1, recombinant human CK2 (RRββ-holoenzyme) (Homo sapiens, UniProt P68400); assay: CK2 Kinase Assay (33P-ATP, peptide RRRDDDSDDD); assay type: biochemical; settings: final ATP 15 μM, 10 min at 30° C.; read-out: IC50, protein kinase CK2 activity
T1 construct: purchased Millipore
Method: CK2 Kinase Assay was conducted using the protocol as described in Pierre F. et al; J. Med. Chem. 2011, 54, 635-654. The tested compounds in aqueous solution were added at a volume of 10 μL to a reaction mixture comprising 10 μL of assay dilution buffer (ADB; 20 mM MOPS, pH 7.2, 25 mM β-glycerol phosphate, 5 mM EGTA, 1 mM sodium orthovanadate, and 1 mM dithiothreitol), 10 μL of substrate peptide (RRRDDDSDDD, dissolved in ADB at a concentration of 1 mM), 10 μL of recombinant human CK2 (RRββ-holoenzyme, 25 ng dissolved in ADB; Millipore). Reactions were initiated by the addition of 10 μL of ATP solution (90% 75 mMMgCl2, 75 μM ATP (final ATP concentration: 15 μM) dissolved in ADB; 10% [γ-33P] ATP (stock 1 mCi/100 μL; 3000 Ci/mmol (Perkin-Elmer) and maintained for 10 min at 30° C. The reactions were quenched with 100 μL of 0.75% phosphoric acid and then transferred to and filtered through a phosphor cellulose filter plate (Millipore). After washing each well five times with 0.75% phosphoric acid, the plate was dried under vacuum for 5 min and, following the addition of 15 μL of scintillation fluid to each well, the residual radioactivity was measured using a Wallac […] counter. The IC50 values were derived from eight concentrations of test inhibitors.

H1299 (lung) = assay: In vitro cytotoxic activity (MTT) assay, H1299; assay type: cell-based; settings: Homo sapiens, NCI-H1299, exposed 96 hours, read-out: IC50, 50% inhibition of cell proliferation
Method: as §1

MDA-MB-231 (breast) = assay: In vitro cytotoxic activity (MTT) assay, MDA-MB-231; assay type: cell-based; settings: Homo sapiens, exposed 96 hours, read-out: IC50, 50% inhibition of cell proliferation
Method: as §1

MIAPaCa-2 (pancreas) = assay: In vitro cytotoxic activity (MTT) assay, MIAPaCa-2; assay type: cell-based; settings: Homo sapiens, MIA PaCa-2, exposed 96 hours, read-out: IC50, 50% inhibition of cell proliferation
Method: as §1

PC3 (prostate) = assay: In vitro cytotoxic activity (MTT) assay, PC3; assay type: cell-based; settings: Homo sapiens, exposed 96 hours, read-out: IC50, 50% inhibition of cell proliferation
Method: as §1

MCF7 (breast) = assay: In vitro cytotoxic activity (MTT) assay, MCF7; assay type: cell-based; settings: Homo sapiens, exposed 96 hours, read-out: IC50, 50% inhibition of cell proliferation
Method: as §1

HCT116 (colon) = assay: In vitro cytotoxic activity (MTT) assay, HCT116; assay type: cell-based; settings: Homo sapiens, HCT-116, exposed 96 hours, read-out: IC50, 50% inhibition of cell proliferation
Method: as §1

T1 sequence (P68400 whole entry): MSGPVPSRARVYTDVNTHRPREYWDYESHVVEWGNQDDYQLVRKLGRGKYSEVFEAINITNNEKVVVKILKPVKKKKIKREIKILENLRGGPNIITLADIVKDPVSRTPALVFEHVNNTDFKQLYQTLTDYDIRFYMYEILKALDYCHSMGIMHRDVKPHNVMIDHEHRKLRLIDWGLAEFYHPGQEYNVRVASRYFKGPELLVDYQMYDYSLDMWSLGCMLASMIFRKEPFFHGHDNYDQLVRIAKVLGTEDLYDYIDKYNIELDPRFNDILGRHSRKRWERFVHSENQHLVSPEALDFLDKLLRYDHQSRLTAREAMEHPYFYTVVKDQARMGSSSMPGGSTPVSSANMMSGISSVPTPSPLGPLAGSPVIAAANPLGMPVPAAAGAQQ
T1 sequence (P67870 whole entry partner): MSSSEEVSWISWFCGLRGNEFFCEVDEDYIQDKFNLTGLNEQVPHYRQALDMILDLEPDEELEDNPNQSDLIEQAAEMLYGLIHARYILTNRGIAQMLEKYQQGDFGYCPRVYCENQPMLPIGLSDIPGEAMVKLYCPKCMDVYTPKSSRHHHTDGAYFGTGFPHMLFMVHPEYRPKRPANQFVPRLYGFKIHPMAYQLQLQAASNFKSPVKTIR

What does the source list for O=C(O)c1cc2c([nH]1)c(Nc1cccc(Cl)c1)nc1ccncc12 [Compound 1, 6-((3-chlorophenyl)amino)-7H-pyrrolo[2,3-c][1,6]naphthyridine-8-carboxylic acid]?
IC50 (A375 (melanoma)): 2500 nM; IC50 (HL60 (leukemia)): 2800 nM; IC50 [1]: 21 nM; IC50 (H1299 (lung)): 1100 nM; IC50 (MDA-MB-231 (breast)): 3200 nM; IC50 (MIAPaCa-2 (pancreas)): 1300 nM; IC50 (PC3 (prostate)): 1800 nM; IC50 (MCF7 (breast)): 3900 nM; IC50 (HCT116 (colon)): 1600 nM
